Assays:
[1] = system: HEK293 Flp-In T-Rex GFP-P2A-(KAAA)21-P2A-RFP WT cells; assay: Fluorescent ribosomal stalling reporter, FACS RFP:GFP ratio; assay type: cell-based; settings: 10 µM for 72 h
Text: The HEK293 cells used in this study (HEK293-Flp-In TREX GFP-P2A-[K^AAA]21 -P2A-RFP) have been engineered to express a reporter system for terminal ribosomal stalling ([Juszkiewicz and Hegde, 2017]). The reporter cassette contains GFP (N-terminal) and RFP (C-terminal) separated by a FLAG-tagged stalling reporter (SR) incorporating a polyA stretch of twenty-one codons (K^AAA)21 (Fig. 5 B). This is flanked by viral P2A sequences, at which ribosomes skip formation of a peptide bond, without interrupting translation elongation. Consequently, unimpaired translation generates 3 proteins (GFP, FLAG-SR, RFP) in equal amounts. Stalling at the FLAG-SR aborts translation before RFP synthesis, leading to a substoichiometric RFP:GFP ratio. Failure to effectively respond to stalled ribosomes allows eventual read-through and a consequent rise in the RFP:GFP ratio that can be assessed by fluorescence-activated cell sorting (Fig. 5 B, schematic diagram; [Juszkiewicz and Hegde, 2017]). […] We also analyzed three of the cell populations treated with individual gRNAs as represented in Fig. 5 A that show varying effectiveness for USP9X depletion. […] We propose that USP9X inhibition may promote read-through by a combined effect on each of these RING E3 ligases linked to the ribosomal quality control pathway. […]

[2] = target: USP33 (Homo sapiens, UniProt Q8TEY7); assay: DUB biochemical assay (Ub-rhodamine cleavage); settings: Ub-rhodamine substrate, DUB panel Fig. S2 A
Protocol: (§1) The assay was performed in a final volume of 6 µl in assay buffer containing 20 mM Tris buffer, pH 8, 0.03% bovine γ-globulin, 0.01% Triton X-100, and 1 mM glutathione. Nanoliter quantities of 10-point, threefold serial dilutions in DMSO were predispensed into 1,536 assay plates for a final top concentration between […] and subsequent half-log dilutions. 2× DUB (0.025 nM final concentration) was added and preincubated for 30 min at room temperature. 2× ubiquitin (Ub)-rhodamine (25 nM final concentration) was added to initiate the reaction. Fluorescence readings (excitation: 485 nm, emission: 535 nm) were acquired over 12 min (Envision reader). The slope of the data from each point was used to determine IC50.
(§2) For all assays, data were reported as percent inhibition compared with control wells. IC50 values were determined by curve fitting of the standard four-parameter logistic fitting algorithm included in the Activity Base software package IDBS XE Designer Model205. Data were fitted using the Levenburg–Marquardt algorithm.

[3] = target: USP11 (Homo sapiens, UniProt P51784); assay: DUB biochemical assay (Ub-rhodamine cleavage); settings: Ub-rhodamine substrate, DUB panel Fig. S2 A
Protocol: as §1, §2

[4] = target: USP25 (Homo sapiens, UniProt Q9UHP3); assay: DUB biochemical assay (Ub-rhodamine cleavage); settings: Ub-rhodamine substrate, DUB panel Fig. S2 A
USP25, sequence (Q9UHP3 whole entry, species assumed): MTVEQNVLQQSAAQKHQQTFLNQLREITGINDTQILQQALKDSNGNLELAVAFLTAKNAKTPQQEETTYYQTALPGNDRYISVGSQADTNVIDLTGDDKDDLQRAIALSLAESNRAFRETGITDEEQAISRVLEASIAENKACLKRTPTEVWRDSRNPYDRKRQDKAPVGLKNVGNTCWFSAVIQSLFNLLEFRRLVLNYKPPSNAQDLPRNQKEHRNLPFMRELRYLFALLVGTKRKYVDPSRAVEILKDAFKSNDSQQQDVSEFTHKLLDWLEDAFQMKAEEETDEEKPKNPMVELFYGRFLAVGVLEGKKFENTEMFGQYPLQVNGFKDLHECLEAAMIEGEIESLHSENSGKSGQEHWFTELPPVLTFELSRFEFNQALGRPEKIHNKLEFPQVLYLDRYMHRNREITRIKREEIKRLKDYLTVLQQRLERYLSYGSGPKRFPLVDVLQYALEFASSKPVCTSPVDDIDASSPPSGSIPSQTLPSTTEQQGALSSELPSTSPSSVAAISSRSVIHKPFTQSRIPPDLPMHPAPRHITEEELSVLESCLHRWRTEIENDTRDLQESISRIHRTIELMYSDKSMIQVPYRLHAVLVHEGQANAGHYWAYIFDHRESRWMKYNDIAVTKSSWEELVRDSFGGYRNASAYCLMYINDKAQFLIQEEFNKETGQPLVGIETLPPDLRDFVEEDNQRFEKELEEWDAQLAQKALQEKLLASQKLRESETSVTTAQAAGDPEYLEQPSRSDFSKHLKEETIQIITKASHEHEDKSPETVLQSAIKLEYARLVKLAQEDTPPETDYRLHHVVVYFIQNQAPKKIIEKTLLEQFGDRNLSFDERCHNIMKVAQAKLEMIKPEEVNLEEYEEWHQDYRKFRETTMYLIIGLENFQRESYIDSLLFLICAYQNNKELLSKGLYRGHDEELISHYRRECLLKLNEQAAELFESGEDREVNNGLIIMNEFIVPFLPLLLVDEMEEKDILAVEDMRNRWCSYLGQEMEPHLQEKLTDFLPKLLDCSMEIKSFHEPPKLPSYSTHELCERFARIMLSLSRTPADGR
Protocol: as §1, §2

[5] = target: USP4 (Homo sapiens, UniProt Q13107); assay: DUB biochemical assay (Ub-rhodamine cleavage); settings: Ub-rhodamine substrate, DUB panel Fig. S2 A
USP4, sequence (Q13107 whole entry, species assumed): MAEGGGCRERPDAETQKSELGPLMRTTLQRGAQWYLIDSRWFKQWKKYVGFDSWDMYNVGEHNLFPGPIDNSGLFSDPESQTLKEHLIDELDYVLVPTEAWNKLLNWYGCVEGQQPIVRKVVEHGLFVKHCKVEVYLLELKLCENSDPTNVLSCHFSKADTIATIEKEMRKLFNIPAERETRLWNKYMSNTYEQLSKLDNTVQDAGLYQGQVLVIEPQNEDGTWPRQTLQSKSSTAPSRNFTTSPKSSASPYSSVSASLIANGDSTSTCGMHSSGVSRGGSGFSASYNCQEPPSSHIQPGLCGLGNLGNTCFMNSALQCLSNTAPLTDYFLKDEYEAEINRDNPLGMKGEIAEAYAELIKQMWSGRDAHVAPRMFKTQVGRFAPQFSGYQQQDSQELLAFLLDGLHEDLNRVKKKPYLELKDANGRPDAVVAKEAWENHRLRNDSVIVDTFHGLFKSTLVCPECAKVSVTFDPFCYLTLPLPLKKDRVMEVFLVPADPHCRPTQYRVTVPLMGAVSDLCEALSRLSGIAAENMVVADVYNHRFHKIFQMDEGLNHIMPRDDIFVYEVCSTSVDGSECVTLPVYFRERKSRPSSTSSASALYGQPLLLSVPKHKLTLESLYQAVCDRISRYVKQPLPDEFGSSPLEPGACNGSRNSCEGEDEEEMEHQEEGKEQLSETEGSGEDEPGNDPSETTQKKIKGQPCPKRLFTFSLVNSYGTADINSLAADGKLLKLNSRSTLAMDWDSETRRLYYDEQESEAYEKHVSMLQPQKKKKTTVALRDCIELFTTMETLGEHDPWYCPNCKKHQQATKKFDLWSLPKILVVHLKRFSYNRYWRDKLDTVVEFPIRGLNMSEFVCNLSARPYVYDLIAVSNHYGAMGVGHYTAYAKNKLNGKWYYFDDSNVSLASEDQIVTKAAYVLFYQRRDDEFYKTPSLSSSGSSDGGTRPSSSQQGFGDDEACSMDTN
Protocol: as §1, §2

[6] = target: USP7 (Homo sapiens, UniProt Q93009); assay: DUB biochemical assay (Ub-rhodamine cleavage); settings: Ub-rhodamine substrate, DUB panel Fig. S2 A
USP7, sequence (Q93009 whole entry, species assumed): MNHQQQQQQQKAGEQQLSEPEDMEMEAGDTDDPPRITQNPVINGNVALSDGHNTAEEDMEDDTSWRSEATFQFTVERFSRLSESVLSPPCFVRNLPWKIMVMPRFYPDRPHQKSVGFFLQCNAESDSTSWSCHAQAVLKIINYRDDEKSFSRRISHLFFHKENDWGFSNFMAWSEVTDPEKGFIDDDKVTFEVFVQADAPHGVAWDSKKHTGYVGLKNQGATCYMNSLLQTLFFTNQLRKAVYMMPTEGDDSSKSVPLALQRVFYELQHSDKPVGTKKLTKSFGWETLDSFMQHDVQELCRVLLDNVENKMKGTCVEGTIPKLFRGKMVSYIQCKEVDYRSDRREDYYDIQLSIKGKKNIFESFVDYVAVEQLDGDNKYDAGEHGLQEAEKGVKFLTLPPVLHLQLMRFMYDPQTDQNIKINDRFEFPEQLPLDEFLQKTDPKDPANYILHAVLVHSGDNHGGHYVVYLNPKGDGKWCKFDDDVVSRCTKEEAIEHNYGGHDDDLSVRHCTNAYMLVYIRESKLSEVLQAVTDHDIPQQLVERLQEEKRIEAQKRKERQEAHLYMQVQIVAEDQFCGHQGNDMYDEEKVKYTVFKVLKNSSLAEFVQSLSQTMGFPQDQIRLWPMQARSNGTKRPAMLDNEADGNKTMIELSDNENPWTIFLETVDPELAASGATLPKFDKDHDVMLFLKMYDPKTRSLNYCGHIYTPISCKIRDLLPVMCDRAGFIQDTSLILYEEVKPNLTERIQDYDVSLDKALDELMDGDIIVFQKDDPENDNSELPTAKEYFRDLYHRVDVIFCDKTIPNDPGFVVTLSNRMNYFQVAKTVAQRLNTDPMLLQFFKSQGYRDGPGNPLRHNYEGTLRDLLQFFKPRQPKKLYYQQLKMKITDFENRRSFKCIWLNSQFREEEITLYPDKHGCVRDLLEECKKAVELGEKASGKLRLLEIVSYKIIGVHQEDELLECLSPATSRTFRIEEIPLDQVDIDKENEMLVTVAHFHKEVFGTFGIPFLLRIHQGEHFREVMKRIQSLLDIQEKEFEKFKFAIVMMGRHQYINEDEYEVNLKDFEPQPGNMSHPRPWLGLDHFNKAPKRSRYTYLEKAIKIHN
Protocol: as §1, §2

[7] = target: USP28 (Homo sapiens, UniProt Q96RU2); assay: DUB biochemical assay (Ub-rhodamine cleavage); settings: Ub-rhodamine substrate, DUB panel Fig. S2 A
Protocol: as §1, §2

[8] = target: USP37 (Homo sapiens, UniProt Q86T82); assay: DUB biochemical assay (Ub-rhodamine cleavage); settings: Ub-rhodamine substrate, DUB panel Fig. S2 A
USP37, sequence (Q86T82 whole entry, species assumed): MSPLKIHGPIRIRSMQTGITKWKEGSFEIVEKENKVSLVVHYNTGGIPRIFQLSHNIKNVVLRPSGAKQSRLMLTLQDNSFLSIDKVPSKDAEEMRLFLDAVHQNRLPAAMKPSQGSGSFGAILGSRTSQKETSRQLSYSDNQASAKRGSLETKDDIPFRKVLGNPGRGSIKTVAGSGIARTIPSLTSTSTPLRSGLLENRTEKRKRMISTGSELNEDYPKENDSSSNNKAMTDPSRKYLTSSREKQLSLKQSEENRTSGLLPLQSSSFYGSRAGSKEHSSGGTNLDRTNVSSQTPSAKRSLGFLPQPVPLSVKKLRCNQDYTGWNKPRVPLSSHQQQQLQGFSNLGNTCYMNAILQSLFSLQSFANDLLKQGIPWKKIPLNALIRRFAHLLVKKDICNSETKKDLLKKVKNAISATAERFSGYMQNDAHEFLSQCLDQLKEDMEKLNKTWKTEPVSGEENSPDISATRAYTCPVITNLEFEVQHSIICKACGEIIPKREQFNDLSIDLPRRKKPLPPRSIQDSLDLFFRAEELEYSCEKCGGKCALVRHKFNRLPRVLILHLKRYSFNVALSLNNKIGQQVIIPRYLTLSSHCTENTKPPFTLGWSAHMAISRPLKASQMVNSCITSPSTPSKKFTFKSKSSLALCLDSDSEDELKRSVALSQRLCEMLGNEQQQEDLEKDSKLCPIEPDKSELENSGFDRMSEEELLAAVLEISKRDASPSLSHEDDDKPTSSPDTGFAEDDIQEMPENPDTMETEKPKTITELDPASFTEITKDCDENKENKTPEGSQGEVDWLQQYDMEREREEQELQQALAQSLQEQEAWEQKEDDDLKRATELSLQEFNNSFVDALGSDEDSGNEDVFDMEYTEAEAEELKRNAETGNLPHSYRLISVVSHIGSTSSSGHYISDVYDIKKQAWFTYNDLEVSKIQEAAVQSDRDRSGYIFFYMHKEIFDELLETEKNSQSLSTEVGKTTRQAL
Protocol: as §1, §2

[9] = target: USP12 (Homo sapiens, UniProt O75317); assay: DUB biochemical assay (Ub-rhodamine cleavage); settings: Ub-rhodamine substrate, DUB panel Fig. S2 A
Protocol: as §1, §2

[10] = target: USP47 (Homo sapiens, UniProt Q96K76); assay: DUB biochemical assay (Ub-rhodamine cleavage); settings: Ub-rhodamine substrate, DUB panel Fig. S2 A
Protocol: as §1, §2

[11] = target: USP2 (Homo sapiens, UniProt O75604); assay: DUB biochemical assay (Ub-rhodamine cleavage); settings: Ub-rhodamine substrate, DUB panel Fig. S2 A
USP2, sequence (O75604 whole entry, species assumed): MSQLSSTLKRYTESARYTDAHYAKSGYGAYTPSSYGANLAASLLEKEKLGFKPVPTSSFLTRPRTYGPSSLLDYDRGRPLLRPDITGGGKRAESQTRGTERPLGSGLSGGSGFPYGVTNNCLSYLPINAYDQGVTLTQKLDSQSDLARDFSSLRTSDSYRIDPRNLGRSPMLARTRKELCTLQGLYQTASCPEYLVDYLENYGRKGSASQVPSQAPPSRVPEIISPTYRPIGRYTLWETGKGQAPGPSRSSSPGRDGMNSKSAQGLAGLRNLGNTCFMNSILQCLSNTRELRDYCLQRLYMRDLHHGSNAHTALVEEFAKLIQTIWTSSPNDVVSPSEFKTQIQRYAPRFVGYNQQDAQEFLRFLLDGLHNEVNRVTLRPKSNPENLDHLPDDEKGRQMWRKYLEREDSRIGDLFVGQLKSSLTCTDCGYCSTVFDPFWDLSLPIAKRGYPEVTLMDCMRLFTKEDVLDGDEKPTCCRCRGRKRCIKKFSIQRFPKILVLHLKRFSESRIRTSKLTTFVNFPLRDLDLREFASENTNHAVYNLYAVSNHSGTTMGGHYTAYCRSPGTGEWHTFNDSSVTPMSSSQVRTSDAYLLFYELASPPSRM
Protocol: as §1, §2

[12] = target: USP36 (Homo sapiens, UniProt Q9P275); assay: DUB biochemical assay (Ub-rhodamine cleavage); settings: Ub-rhodamine substrate, DUB panel Fig. S2 A
Protocol: as §1, §2

[13] = target: USP22 (Homo sapiens, UniProt Q9UPT9); assay: DUB biochemical assay (Ub-rhodamine cleavage); settings: Ub-rhodamine substrate, DUB panel Fig. S2 A
Protocol: as §1, §2

[14] = target: USP13 (Homo sapiens, UniProt Q92995); assay: DUB biochemical assay (Ub-rhodamine cleavage); settings: Ub-rhodamine substrate, DUB panel Fig. S2 A
Protocol: as §1, §2

[15] = target: USP5 (Homo sapiens, UniProt P45974); assay: DUB biochemical assay (Ub-rhodamine cleavage); settings: Ub-rhodamine substrate, DUB panel Fig. S2 A
Protocol: as §1, §2

[16] = target: USP18 (Homo sapiens, UniProt Q9UMW8); assay: DUB biochemical assay (Ub-rhodamine cleavage); settings: Ub-rhodamine substrate, DUB panel Fig. S2 A
USP18, sequence (Q9UMW8 whole entry, species assumed): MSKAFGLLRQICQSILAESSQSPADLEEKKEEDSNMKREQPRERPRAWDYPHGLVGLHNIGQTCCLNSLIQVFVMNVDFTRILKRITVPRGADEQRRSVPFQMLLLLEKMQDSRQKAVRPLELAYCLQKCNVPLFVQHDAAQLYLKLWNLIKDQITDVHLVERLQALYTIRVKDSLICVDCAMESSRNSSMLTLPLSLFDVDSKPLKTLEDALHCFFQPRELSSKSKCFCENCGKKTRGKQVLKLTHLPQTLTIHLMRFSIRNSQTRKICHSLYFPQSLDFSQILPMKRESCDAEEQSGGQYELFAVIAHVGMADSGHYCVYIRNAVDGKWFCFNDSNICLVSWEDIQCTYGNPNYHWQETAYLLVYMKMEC
Protocol: as §1, §2

[17] = target: USP24 (Homo sapiens, UniProt Q9UPU5); assay: DUB biochemical assay (Ub-rhodamine cleavage); settings: Ub-rhodamine substrate, DUB panel Fig. S2 A
Protocol: as §1, §2

[18] = target: USP1 (Homo sapiens, UniProt O94782); assay: DUB biochemical assay (Ub-rhodamine cleavage); settings: Ub-rhodamine substrate, DUB panel Fig. S2 A
Protocol: as §1, §2

[19] = target: USP8 (Homo sapiens, UniProt P40818); assay: DUB biochemical assay (Ub-rhodamine cleavage); settings: Ub-rhodamine substrate, DUB panel Fig. S2 A
Protocol: as §1, §2

[20] = target: USP15 (Homo sapiens, UniProt Q9Y4E8); assay: DUB biochemical assay (Ub-rhodamine cleavage); settings: Ub-rhodamine substrate, DUB panel Fig. S2 A
Protocol: as §1, §2

[21] = target: USP10 (Homo sapiens, UniProt Q14694); assay: DUB biochemical assay (Ub-rhodamine cleavage); settings: Ub-rhodamine substrate, DUB panel Fig. S2 A
Protocol: as §1, §2

[22] = system: HCT116 cells; assay: SILAC-based proteome analysis of FT709-treated HCT116 cells; assay type: cell-based; settings: 10 µM, 24 h
Protocol: HCT116 cells were grown in SILAC DMEM supplemented with 10% dialyzed FBS (Dundee Cell Products) at 37°C and 5% CO2. To generate light, medium, and heavy stable isotope-labeled cells, arginine- and lysine-free DMEM medium was supplemented with 200 mg/liter L-proline and either L-lysine (Lys0) together with L-arginine (Arg0; light), L-lysine-^2H4 (Lys4) with L-arginine-U-^13C6 (Arg6; medium), or L-lysine-U-^13C6-^15N2 (Lys8) with L-arginine-U-^13C6-^15N4 (Arg10; heavy) at final concentrations of 84 mg/liter for the arginine and 146 mg/liter for the lysine until fully metabolically labeled. […] Relative protein concentrations of the lysates were determined using a bicinchoninic acid assay (Thermo Fisher Scientific), and light-, medium-, and heavy-labeled lysates were combined in a 1:1:1 ratio.
Protein extracts (1.2–1.5 mg) containing SDS were reduced with 5 mM dithiothreitol, alkylated with 20 mM iodoacetamide, and then subjected to methanol/chloroform extraction. […] Peptide fractions were analyzed in technical replicates by nano-UPLC-MS/MS using a Dionex Ultimate 3000 nano UPLC with EASY spray column (75 µm × 500 mm, 2 µm particle size; Thermo Fisher Scientific) with a 60-min gradient of 2% acetonitrile/0.1% formic acid/5% DMSO to 35% acetonitrile/0.1% formic acid/5% DMSO at a flow rate of ∼250 nl/min. […]

[23] = system: ZNF598; assay: Immunoblot of ZNF598 in FT709-treated HCT116 cells; assay type: cell-based; settings: 10 µM, 4 or 24 h
Protocol: (§3) Cultured cells were lysed for 10 min at 4°C in RIPA buffer (10 mM Tris-HCl, pH 7.5, 150 mM NaCl, 1% Triton X-100, 0.1% SDS, and 1% sodium deoxycholate) supplemented with mammalian protease inhibitor cocktail (Sigma-Aldrich). Proteins were resolved using SDS-PAGE (Invitrogen NuPage gel 4–12%), transferred to nitrocellulose membrane, blocked in 5% fat-free milk or 5% bovine serum albumin in TBS supplemented with Tween-20, and probed with primary antibodies overnight. Visualization and quantification of Western blots were performed using IRdye 800CW and 680LT coupled secondary antibodies and an Odyssey infrared scanner (LI-COR Biosciences).

[24] = system: CEP55; assay: MSD ELISA assay for CEP55 reduction in BxPC3 cells; assay type: cell-based; settings: Homo sapiens, BXPC-3, BxPC3 pancreatic cancer cells, 6 h exposure, read-out: IC50 for modulation (reduction) of CEP55 expression
Protocol: BxPC3 cells were seeded in 96-well plates and exposed to FT709 (20 µM top concentration, 1:2 serial dilutions) for 6 h. Cell lysates were prepared in RIPA buffer and stored at −80°C until analysis. Samples were analyzed by an MSD ELISA assay (Pacific Biolabs) using a CEP55 antibody (Novux; 1:500 dilution in PBS) captured overnight at 4°C, 30 µl lysates per well, 30 µl of CEP55 antibody (CST; 81693) diluted 1:2,000 in 1% blocker A/PBS and 30 µl per well of a 1:4,000 diluted goat anti-rabbit sulfo-tag, 1% blocker A/PBS. Plates were read on a MSD Sector Imager 2400. Results were transformed as percentage DMSO controls and curves fitted using a nonlinear regression to determine the IC50. Results presented are based on duplicate values.

[25] = system: ZNF598, MKRN1 and MKRN2; assay: Immunoblot of ZNF598 and Makorins in FT709-treated (KAAA)21 WT cells; assay type: cell-based; settings: (KAAA)21 WT HEK293 cells, indicated concentrations for 48 h
Protocol: as §3

[26] = system: ZNF598 and MKRN2; assay: Immunoblot of FT709 responsive markers in A549 and U2OS cells; assay type: cell-based; settings: 10 µM
Protocol: as §3

How did the “polyA read-through (RFP:GFP ratio)” value [1] turn out when `Cc1nc2c(C(O)C(=O)N3CC4=C(C3)CN(S(=O)(=O)c3cnc5c(c3)OCCO5)C4)cccc2o1` (centres unmarked) [FT709] was run?
The value was “recapitulate polyA read-through”.

And the IC50 [2]?
The IC50 was over 26.7 µM.

What about the IC50 [3] of the same compound?
The IC50 was over 33.3 µM.

What about the IC50 [4] of the same compound?
The IC50 was over 26.7 µM.

And the IC50 [5]?
Its IC50 is over 33.3 µM.

What about the IC50 [6] of the same compound?
Its IC50 is over 25.8 µM.

And the IC50 [7]?
The IC50 was over 26.7 µM.

What about the IC50 [8] of the same compound?
The IC50 was over 33.3 µM.

And the IC50 [9]?
Its IC50 is over 33.3 µM.

And the IC50 [10]?
Its IC50 is over 33.3 µM.

What about the IC50 [11] of the same compound?
The IC50 was over 26.7 µM.

And the IC50 [12]?
The IC50 was over 26.7 µM.

And the IC50 [13]?
Its IC50 is over 26.7 µM.

What about the IC50 [14] of the same compound?
The IC50 was over 26.7 µM.

What about the IC50 [15] of the same compound?
Its IC50 is over 33.3 µM.

And the IC50 [16]?
The IC50 was over 27.9 µM.

What about the IC50 [17] of the same compound?
Its IC50 is over 26.7 µM.

What about the IC50 [18] of the same compound?
Its IC50 is over 25.8 µM.

What about the IC50 [19] of the same compound?
The IC50 was over 25 µM.

And the IC50 [20]?
Its IC50 is over 26.7 µM.

What about the IC50 [21] of the same compound?
Its IC50 is over 33.3 µM.

And the “Protein abundance change in SILAC proteomic datasets” value [22]?
Its value is “de-enrichment of ZNF598 and MKRN2”.

And the ZNF598 protein level [23]?
Its ZNF598 protein level is “reduction of ZNF598”.

And the IC50 [24]?
Its IC50 is 0.131 µM.

And the “ZNF598, MKRN1 and MKRN2 protein levels” value [25]?
The value was “smaller reduction in ZNF598 levels but was again accompanied by parallel reductions in MKRN1 and 2”.

And the “FT709-dependent loss of ZNF598 versus MKRN2” value [26]?
The value was “loss of ZNF598 is minor compared with MKRN2”.

Reference: PMC7849821, “The deubiquitylase USP9X controls ribosomal stalling” (The Journal of Cell Biology, 2021)
